We go through 8 compounds from patent US5827516A, “Immunomodulatory peptides” (President and Fellows of Harvard College, priority 1995, dated 1998).

In test [1] the target is T1, HLA-DR1 (Homo sapiens, UniProt P01903+P01911, A100R/D57E/F55L/F60I/F76Y/I96L/L162R/M171V/P40L/Q125E/R42F/V115G/Y59C).
T1 construct: made in house; host or cells: Sf9 insect cells
Briefly: Competition against 125I-labeled HA 307-319 for binding to "empty" HLA-DR1.

Test [2] has as its target T1, HLA-DR1. Kind of test: Resistance to SDS-induced chain dissociation of HLA-DR1 (SDS-PAGE). Type of test: binding.

Ends that are not written are not given here.

A word on the Ki: it is a measure of affinity in units of concentration, obtained from inhibition or displacement. A low value points to a stronger hold on the target.

The compound “SDLSFSKDWSFYL [β2 m 52-64, reference compound]” showed a Ki at HLA-DR1 [1] of over 10000 nM.

On HLA-DR1 [1], “IPADLRIISANGCKVDNS [Na+/K+ ATPase 199-216]” yielded a Ki of 68 ± 9 nM.

Regarding `CSCC[C@H](NC(=O)[C@H](CCCNC(=N)N)NC(=O)[C@H](CCSC)NC(=O)[C@H](CCCCN)NC(=O)[C@H](CO)NC(=O)[C@@H](NC(=O)[C@@H]1CCCN1C(=O)[C@H](CCCCN)NC(=O)[C@@H]1CCCN1C(=O)[C@@H]1CCCN1C(=O)[C@H](CCCCN)NC(=O)[C@@H]1CCCN1C(=O)[C@@H](N)CC(C)C)C(C)C)C(=O)N[C@@H](C)C(=O)N[C@H](C(=O)O)[C@@H](C)O` [Ii 97-111, reference compound], the “able to confer resistance to SDS-induced α-β chain dissociation of "empty" DR1” value on HLA-DR1 [2] is reported as “Neither”. Also, the “able to compete with HA 307-319 for binding to DR1” value at HLA-DR1 [1] is recorded as “Neither”.

For “Ii 107-120: Ii peptide named in the text as the highest-affinity competitor; probably the Ii 106-120 entry of Table 2 (MRMATPLLMQALPM)”, the “relative binding affinity to DR1 among competitor peptides” value in the test with HLA-DR1 [1] (at first approximation, equivalent to control HA peptide) is “highest affinity of all the competitor peptides measured”. For “RVEYHFLSPYVSPKESP [Transf. Recept. 680-696]”, the Ki at HLA-DR1 [1] is under 10 nM. LPKPPKPVSKMRMATPLLMQALPM [Ii 98-121] showed a Ki on HLA-DR1 [1] of 33 ± 5 nM. On to VGSDWRFLRGYHQYA [HLA-A2 103-117], for which the Ki at HLA-DR1 [1] is 49 ± 3 nM.

On HLA-DR1 [1], KMRMATPLLMQALPM [Ii 106-120] came in with a Ki of under 10 nM.
